Measured values reported in US5631382A, “Fulgimide compound” (Tokuyama Corporation, priority 1994, dated 1997).

How the values were obtained:
Format in all cases: physicochemical
[1] = Developed color of polymer plate under xenon light (color density, maximum absorption wavelength); conditions: for Color density: 0.04 parts in polymer plate; for λ max: state of developing color, polymer plate
Source text: (§1) 0.04 Parts of fulgimide compounds shown in Table 3, 70 parts of tetraethyleneglycol dimethacrylate, 15 parts of triethyleneglycol dimethacrylate, 10 parts of glycidyl methacrylate, 5 parts of 2-hydroethylmethacrylate and 1 part of perbutyl ND as a polymerization catalyst, were sufficiently mixed together until they were completely dissolved. The mixture solution was poured into a mold constituted by a glass plate and a gasket of an ethylene/vinyl acetate copolymer, and its temperature was elevated in an air oven from 35° C. to 90° C. over a period of 20 hours to effect the polymerization. After the polymerization, the polymer was taken out from the glass mold.
(§2) The obtained polymer plate was irradiated with xenon light by using a Xenon Long-Life Fade Meter FAL-25AX-HC (output: 2.5 KW, source of light: xenon long-life arc lamp) manufactured by Suga Shikenki Co., in order to measure a maximum absorption wavelength in a state of developing color. The initial color tone was observed by eyes, and YI of the samples was measured by using a color-difference meter (Model SM-4) manufactured by Suga Shikenki Co. The wear life (T 1/2) was also measured in compliance with JIS L0843 and JIS B7754. T 1/2 is defined to be the time until the color density decreases down to one-half the initial value when the polymer plate is irradiated with light by using the fade meter.
(§3) For the purpose of comparison, the fulgimide compounds represented by the following formulas (A) to (I) were also used to prepare polymer plates to measure their properties in the same procedure as described above. [drawing 113]

[2] = Initial color of polymer plate (visual observation, YI by color-difference meter); conditions: for Initial color, visually observed: before irradiation; for Initial color, YI: color-difference meter SM-4
Source text: as §1, §2, §3

[3] = Wear life (T 1/2) of polymer plate in xenon fade meter, JIS L0843 and JIS B7754; conditions: time until color density decreases to one-half the initial value
Source text: as §1, §2, §3

Color density [1]	λ max [1]	Initial color, visually observed [2]	Initial color, YI [2]	T1/2 [3]	Structure (SMILES)
0.68	568 nm	pale yellow	4.68	100 h	CCC1=C2C(=O)N(S(=O)(=O)O)C(=O)C2C2(c3c(OC)cc(OC)cc31)C1CC3CC(C1)CC2C3 (centres unmarked) [Compound 27]
0.98	600 nm	colorless	2.01	385 h	N#CN1C(=O)C2=C(C3CC3)c3ccoc3C3(C4CC5CC(C4)CC3C5)C2C1=O (centres unmarked) [Compound 29]
0.70	550 nm	colorless	2.11	105 h	CC(=O)N1C(=O)C2=C(C)c3ccsc3C3(C4CC5CC(C4)CC3C5)C2C1=O (centres unmarked) [Compound 32]
0.58	550 nm	colorless	2.16	100 h	CC1=C2C(=O)N(C(=O)c3ccccc3)C(=O)C2C2(c3occc31)C1CC3CC(C1)CC2C3 (centres unmarked) [Compound 33]
0.82	570 nm	yellow	10.75	90 h	CC1=C2C(=O)N(CC#N)C(=O)C2C2(c3sc(-c4ccccc4)cc31)C1CC3CC(C1)CC2C3 (centres unmarked) [D, reference compound]
0.90	580 nm	yellow	18.21	90 h	COc1ccc(-c2cc3c(s2)C2(C4CC5CC(C4)CC2C5)C2C(=O)N(CC#N)C(=O)C2=C3C)cc1 (centres unmarked) [E, reference compound]
0.75	600 nm	yellow	19.23	80 h	CCN1C(=O)C2=C(C)c3cc(-c4ccc(OC)cc4)n(-c4ccccc4)c3C3(C4CC5CC(C4)CC3C5)C2C1=O (centres unmarked) [F, reference compound]

The remaining lines, values behind:

Structure (SMILES)	Color density [1]	λ max [1]	Initial color, visually observed [2]	Initial color, YI [2]	T1/2 [3]
CC1=C2C(=O)N(C#N)C(=O)C2C2(c3sccc31)C1CC3CC(C1)CC2C3 (centres unmarked) [Compound 28]	0.56	604 nm	colorless	2.06	270 h
COc1cc(OC)c2c(c1)C(C)=C1C(=O)N(C#N)C(=O)C1C21C2CC3CC(C2)CC1C3 (centres unmarked) [Compound 30]	0.73	590 nm	colorless	2.21	210 h
CC1=C2C(=O)N(C#N)C(=O)C2C2(c3occc31)C1CC3CC(C1)CC2C3 (centres unmarked) [Compound 31]	0.65	580 nm	colorless	2.00	265 h
CCN1C(=O)C2=C(C)c3cc(-c4ccc(OC)cc4)n(C)c3C3(C4CC5CC(C4)CC3C5)C2C1=O (centres unmarked) [G, reference compound]	0.88	610 nm	yellow	19.56	85 h
CCOC(=O)CN1C(=O)C2=C(C)c3cc(-c4ccc(OC)cc4)n(C)c3C3(C4CC5CC(C4)CC3C5)C2C1=O (centres unmarked) [H, reference compound]	0.78	620 nm	yellow	19.52	80 h
COc1ccc(-c2cc3c(n2C)C2(C4CC5CC(C4)CC2C5)C2C(=O)N(CC#N)C(=O)C2=C3C)cc1 (centres unmarked) [I, reference compound]	0.73	630 nm	yellow	18.89	80 h
